According to article PMC12621043, “Un-LOK-ing a New Approach for Conformational Selective Targeting of STK10 (LOK)” (ACS Medicinal Chemistry Letters, 2025):

What was measured:
Test in all cases: DSF Tm panel
Format in all cases: binding
Settings in all cases: 10 μM compound
CAMKK2B = target: T1, CAMKK2B (Homo sapiens, UniProt Q96RR4)
T1 construct: purchased in-house DSF kinase panel (SGC-style construct names; the trailing letter is the construct ID)

SRPK1A = target: T2, SRPK1A (Homo sapiens, UniProt Q96SB4)
T2 construct: purchased in-house DSF kinase panel (SGC-style construct names; the trailing letter is the construct ID)
T2 sequence (Q96SB4 80-653): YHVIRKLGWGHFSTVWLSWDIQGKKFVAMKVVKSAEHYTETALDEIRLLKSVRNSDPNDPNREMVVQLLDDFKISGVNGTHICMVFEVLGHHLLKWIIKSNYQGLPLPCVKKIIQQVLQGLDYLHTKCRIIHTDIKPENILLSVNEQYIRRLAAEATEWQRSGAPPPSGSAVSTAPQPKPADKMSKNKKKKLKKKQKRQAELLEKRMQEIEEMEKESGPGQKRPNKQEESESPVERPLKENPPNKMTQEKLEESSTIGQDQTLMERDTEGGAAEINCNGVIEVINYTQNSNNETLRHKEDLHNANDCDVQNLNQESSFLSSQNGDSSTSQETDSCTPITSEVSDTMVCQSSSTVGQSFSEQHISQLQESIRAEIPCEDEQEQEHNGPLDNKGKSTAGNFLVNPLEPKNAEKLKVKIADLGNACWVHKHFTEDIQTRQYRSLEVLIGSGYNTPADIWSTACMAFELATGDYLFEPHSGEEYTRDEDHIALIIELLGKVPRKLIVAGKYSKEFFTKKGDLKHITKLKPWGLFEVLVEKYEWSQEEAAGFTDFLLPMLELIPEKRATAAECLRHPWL

FLT1A = target: T3, FLT1A (Homo sapiens, UniProt P17948)
T3 construct: purchased in-house DSF kinase panel (SGC-style construct names; the trailing letter is the construct ID)
T3 sequence (P17948 801-1158): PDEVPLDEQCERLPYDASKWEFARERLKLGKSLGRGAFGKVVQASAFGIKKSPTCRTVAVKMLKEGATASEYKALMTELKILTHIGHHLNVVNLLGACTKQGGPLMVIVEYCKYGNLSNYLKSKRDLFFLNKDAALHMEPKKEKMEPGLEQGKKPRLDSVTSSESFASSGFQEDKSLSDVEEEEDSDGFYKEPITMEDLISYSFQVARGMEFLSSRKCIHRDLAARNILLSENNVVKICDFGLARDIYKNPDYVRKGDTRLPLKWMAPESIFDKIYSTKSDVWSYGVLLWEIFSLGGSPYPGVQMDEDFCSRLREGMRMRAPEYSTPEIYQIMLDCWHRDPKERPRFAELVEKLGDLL

RIOK1A = target: T4, RIOK1A (Homo sapiens, UniProt Q9BRS2)
T4 construct: purchased in-house DSF kinase panel (SGC-style construct names; the trailing letter is the construct ID)
T4 sequence (Q9BRS2 143-494): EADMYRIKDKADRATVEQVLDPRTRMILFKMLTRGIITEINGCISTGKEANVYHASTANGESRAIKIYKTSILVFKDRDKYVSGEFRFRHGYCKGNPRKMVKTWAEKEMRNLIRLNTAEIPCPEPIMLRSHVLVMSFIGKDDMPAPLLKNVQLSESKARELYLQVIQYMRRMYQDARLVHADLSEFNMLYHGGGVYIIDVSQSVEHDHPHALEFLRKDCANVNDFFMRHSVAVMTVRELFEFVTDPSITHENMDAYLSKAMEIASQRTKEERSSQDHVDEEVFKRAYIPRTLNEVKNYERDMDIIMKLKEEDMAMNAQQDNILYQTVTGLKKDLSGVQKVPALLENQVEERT

WNK1A = target: T5, WNK1A (Homo sapiens, UniProt Q9H4A3)
T5 construct: purchased in-house DSF kinase panel (SGC-style construct names; the trailing letter is the construct ID)
T5 sequence (Q9H4A3 206-483): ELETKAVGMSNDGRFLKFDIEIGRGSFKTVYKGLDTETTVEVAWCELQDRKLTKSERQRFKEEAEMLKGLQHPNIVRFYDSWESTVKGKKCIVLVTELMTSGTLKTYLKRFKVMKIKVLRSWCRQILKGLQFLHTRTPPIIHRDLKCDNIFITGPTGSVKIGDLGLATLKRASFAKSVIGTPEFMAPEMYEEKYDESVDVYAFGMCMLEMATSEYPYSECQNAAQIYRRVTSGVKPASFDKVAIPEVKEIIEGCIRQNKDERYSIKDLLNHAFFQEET

CDC42BPAA = tested on: CDC42BPAA
CAMK1GA = target: T6, CAMK1GA (Homo sapiens, UniProt Q96NX5)
T6 construct: purchased in-house DSF kinase panel (SGC-style construct names; the trailing letter is the construct ID)
T6 sequence (Q96NX5 18-316): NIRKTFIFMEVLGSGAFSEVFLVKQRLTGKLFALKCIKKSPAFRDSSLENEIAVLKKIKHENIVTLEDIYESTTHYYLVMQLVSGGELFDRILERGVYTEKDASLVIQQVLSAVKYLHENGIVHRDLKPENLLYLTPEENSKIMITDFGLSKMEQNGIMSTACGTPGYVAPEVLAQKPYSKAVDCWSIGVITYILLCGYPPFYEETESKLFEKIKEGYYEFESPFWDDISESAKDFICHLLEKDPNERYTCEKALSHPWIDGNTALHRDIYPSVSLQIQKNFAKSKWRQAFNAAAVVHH

CAMK2DA = target: T7, CAMK2DA (Homo sapiens, UniProt Q13557)
T7 construct: purchased in-house DSF kinase panel (SGC-style construct names; the trailing letter is the construct ID)
T7 sequence (Q13557 11-309): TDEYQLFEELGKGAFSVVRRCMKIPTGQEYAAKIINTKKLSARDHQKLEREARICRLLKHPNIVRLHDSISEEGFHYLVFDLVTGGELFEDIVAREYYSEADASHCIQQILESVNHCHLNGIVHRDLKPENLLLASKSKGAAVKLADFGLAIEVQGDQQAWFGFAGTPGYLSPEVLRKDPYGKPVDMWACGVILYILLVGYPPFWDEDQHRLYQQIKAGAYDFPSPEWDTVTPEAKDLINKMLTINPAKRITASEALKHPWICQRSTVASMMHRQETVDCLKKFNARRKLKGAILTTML

MELKA = target: T8, MELKA (Homo sapiens, UniProt Q14680)
T8 construct: purchased in-house DSF kinase panel (SGC-style construct names; the trailing letter is the construct ID)
T8 sequence (Q14680 1-340): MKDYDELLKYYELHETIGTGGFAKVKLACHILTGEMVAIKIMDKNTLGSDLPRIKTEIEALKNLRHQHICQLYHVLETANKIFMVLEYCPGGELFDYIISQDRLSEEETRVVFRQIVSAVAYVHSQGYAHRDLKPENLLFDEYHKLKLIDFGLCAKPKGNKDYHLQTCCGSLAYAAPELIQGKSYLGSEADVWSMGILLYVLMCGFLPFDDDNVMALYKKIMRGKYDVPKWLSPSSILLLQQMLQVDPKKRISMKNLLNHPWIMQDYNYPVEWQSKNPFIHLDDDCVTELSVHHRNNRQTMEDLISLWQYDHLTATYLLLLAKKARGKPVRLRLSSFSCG

DMPK1A = target: T9, DMPK1A (Homo sapiens, UniProt Q09013)
T9 construct: purchased in-house DSF kinase panel (SGC-style construct names; the trailing letter is the construct ID)
T9 sequence (Q09013 1-629): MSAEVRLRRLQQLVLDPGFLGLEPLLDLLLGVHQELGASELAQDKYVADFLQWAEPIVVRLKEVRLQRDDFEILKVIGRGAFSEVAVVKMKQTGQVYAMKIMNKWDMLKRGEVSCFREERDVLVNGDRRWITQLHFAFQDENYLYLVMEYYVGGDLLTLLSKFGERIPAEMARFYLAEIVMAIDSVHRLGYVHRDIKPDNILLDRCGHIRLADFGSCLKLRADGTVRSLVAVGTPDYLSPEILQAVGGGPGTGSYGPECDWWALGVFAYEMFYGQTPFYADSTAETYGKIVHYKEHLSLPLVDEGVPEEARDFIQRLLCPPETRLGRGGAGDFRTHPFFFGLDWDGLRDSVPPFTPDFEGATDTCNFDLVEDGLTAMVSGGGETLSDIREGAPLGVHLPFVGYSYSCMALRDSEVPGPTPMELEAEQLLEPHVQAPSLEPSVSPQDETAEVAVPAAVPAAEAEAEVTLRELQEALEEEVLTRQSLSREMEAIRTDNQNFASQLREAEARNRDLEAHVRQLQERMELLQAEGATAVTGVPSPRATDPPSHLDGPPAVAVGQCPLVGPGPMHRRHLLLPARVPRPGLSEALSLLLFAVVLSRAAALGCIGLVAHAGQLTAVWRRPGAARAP

MSSK1A = target: T10, MSSK1A (Homo sapiens, UniProt Q9UPE1)
T10 construct: purchased in-house DSF kinase panel (SGC-style construct names; the trailing letter is the construct ID)
T10 sequence (Q9UPE1 79-565): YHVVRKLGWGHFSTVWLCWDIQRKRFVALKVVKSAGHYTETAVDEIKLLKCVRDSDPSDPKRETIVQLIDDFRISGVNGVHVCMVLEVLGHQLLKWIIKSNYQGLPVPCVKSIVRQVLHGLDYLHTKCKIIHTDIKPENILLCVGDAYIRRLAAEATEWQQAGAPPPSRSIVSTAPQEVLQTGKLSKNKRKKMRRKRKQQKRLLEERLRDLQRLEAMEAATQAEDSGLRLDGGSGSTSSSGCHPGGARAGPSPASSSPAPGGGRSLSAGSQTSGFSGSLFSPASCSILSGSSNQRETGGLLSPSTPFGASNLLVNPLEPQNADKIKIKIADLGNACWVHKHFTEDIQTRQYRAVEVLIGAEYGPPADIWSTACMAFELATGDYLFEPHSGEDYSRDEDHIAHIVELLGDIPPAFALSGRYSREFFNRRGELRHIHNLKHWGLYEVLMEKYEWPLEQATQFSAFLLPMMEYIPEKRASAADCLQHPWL

HIPK2HSF = target: T11, HIPK2HSF (Homo sapiens, UniProt Q9H2X6)
T11 construct: purchased in-house DSF kinase panel (SGC-style construct names; the trailing letter is the construct ID)
T11 sequence (Q9H2X6 199-527): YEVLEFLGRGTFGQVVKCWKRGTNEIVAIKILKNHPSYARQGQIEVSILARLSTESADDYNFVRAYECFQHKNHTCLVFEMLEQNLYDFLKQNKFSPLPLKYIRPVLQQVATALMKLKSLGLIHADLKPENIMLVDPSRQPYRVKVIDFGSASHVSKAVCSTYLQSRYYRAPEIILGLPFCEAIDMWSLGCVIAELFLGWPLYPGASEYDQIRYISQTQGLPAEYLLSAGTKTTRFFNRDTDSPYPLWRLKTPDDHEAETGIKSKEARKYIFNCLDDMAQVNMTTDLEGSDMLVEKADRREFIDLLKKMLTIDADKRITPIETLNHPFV

RPS6KA5A = tested on: RPS6KA5A
Experimental: The synthesized urea-based derivatives were evaluated in a panel of kinases by differential scanning fluorescence (DSF) to investigate their selectivity profile. A positive ΔT m in the DSF assay indicates stabilization of the protein upon ligand binding in comparison to its apo state, with higher thermal shifts generally correlating with stronger binding. For this purpose, we used our internal kinase selectivity panel (∼90 kinases) along with staurosporine as a positive control. […]
was performed as previously described.[1,2] Briefly, recombinant protein kinase domains at a concentration of 2 μM were mixed with 10 μM compound in a buffer containing 20 mM HEPES, […]
probe (1 µl per mL). Subsequently, temperature-dependent protein unfolding profiles were […]
The temperature was raised with a step rate of 3 °C per minute. […]
inflection point of the transition curve. […]
previously.[3] In brief, STK10, STK3, STK4 and SLK were obtained as plasmids cloned in […]
Plasmids were transfected into
KD concentration taken from TracerDB (tracerdb.org)[4] were pipetted into white 384-well

T1 sequence (Q96RR4 161-449): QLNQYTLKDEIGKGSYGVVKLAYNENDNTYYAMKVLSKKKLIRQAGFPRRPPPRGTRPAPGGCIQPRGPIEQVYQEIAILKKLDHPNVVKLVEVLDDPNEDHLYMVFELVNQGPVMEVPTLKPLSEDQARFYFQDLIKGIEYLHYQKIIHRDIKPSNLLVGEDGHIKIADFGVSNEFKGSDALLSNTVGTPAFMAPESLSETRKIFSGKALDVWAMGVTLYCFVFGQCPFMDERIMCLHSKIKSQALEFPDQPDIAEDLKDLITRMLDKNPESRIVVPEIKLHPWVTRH

Row | ΔTm at 10 µM (CAMKK2B) [°C] | ΔTm at 10 µM (SRPK1A) [°C] | ΔTm at 10 µM (FLT1A) [°C] | ΔTm at 10 µM (RIOK1A) [°C] | ΔTm at 10 µM (WNK1A) [°C] | ΔTm at 10 µM (CAMK1GA) [°C] | ΔTm at 10 µM (CAMK2DA) [°C] | ΔTm at 10 µM (MELKA) [°C] | ΔTm at 10 µM (DMPK1A) [°C] | ΔTm at 10 µM (MSSK1A) [°C] | ΔTm at 10 µM (HIPK2HSF) [°C] | Compound | ΔTm CDC42BPAA (CDC42BPAA) | ΔTm RPS6KA5A (RPS6KA5A)
1 | 1.5 | 0.2 |  |  |  |  | 2.1 | 1 | 0.3 | 0.5 | 0.5 | COc1ccccc1CNC(=O)Nc1ccc2cc1OCCOCCNc1ccn3ncc-2c3n1 [compound 29] | 0,3 °C | 0,2 °C
2 | 2.9 | 0.2 | 4.4 | 1.2 | 0.4 | 0 | 0.5 | 2.2 | 0.2 |  |  | CN1CCN(C(=O)Nc2ccc3cc2OCCOCCNc2ccn4ncc-3c4n2)CC1 [compound 35] | -0,6 °C | 
3 | 0.6 | -0.1 |  |  |  |  | 2.2 | 1.3 | 0 | 0.4 | 0.4 | C[C@H](NC(=O)Nc1ccc2cc1OCCOCCNc1ccn3ncc-2c3n1)c1ccccc1 [compound 34] | 0,1 °C | 0,6 °C
4 | 1.8 | 0 |  |  |  |  | 2.7 | 1.4 | 0.6 | 0.4 | 0.5 | COc1ccc(CNC(=O)Nc2ccc3cc2OCCOCCNc2ccn4ncc-3c4n2)cc1F [compound 32] | 0,1 °C | 1,1 °C
5 | 3.2 | 0 |  |  |  |  | 2.4 | 2.1 | 0.7 | 0.4 | 0.5 | COc1cc(CNC(=O)Nc2ccc3cc2OCCOCCNc2ccn4ncc-3c4n2)ccc1F [compound 33] | 0,1 °C | 0,7 °C
6 | 1.8 | 0.1 |  |  |  |  | 2.8 | 1.7 | 1 | 0.7 | 0.5 | COc1ccc(CNC(=O)Nc2ccc3cc2OCCOCCNc2ccn4ncc-3c4n2)cc1 [compound 31] | 0,0 °C | 
7 | 2 | 0.1 |  |  |  |  | 2.3 | 1.3 | 0.4 | 0.4 | 0.4 | COc1cccc(CNC(=O)Nc2ccc3cc2OCCOCCNc2ccn4ncc-3c4n2)c1 [compound 30] | 0,2 °C | 0,3 °C

Second part, the compound before the results:

Row | Compound | ΔTm at 10 µM (CAMKK2B) [°C] | ΔTm at 10 µM (SRPK1A) [°C] | ΔTm at 10 µM (FLT1A) [°C] | ΔTm at 10 µM (RIOK1A) [°C] | ΔTm at 10 µM (WNK1A) [°C] | ΔTm at 10 µM (CAMK1GA) [°C] | ΔTm at 10 µM (CAMK2DA) [°C] | ΔTm at 10 µM (MELKA) [°C] | ΔTm at 10 µM (DMPK1A) [°C] | ΔTm at 10 µM (MSSK1A) [°C] | ΔTm at 10 µM (HIPK2HSF) [°C] | ΔTm CDC42BPAA (CDC42BPAA) | ΔTm RPS6KA5A (RPS6KA5A)
8 | O=C(NCc1cccc(Cl)c1)Nc1ccc2cc1OCCOCCNc1ccn3ncc-2c3n1 [compound 18] | 3.1 | -0.3 | 3.7 | 1.4 | 0.09 | 0.8 | 0.5 | 1.5 | 0.1 |  |  | 0,0 °C | 
9 | Cc1cc(Br)ccc1CNC(=O)Nc1ccc2cc1OCCOCCNc1ccn3ncc-2c3n1 [compound 24] | 0.7 | -0.2 |  |  |  |  | 2.2 | 0 | 0.3 | 0.2 | 0.2 | 0,7 °C | 1,0 °C
10 | O=C(NCc1ccccc1Cl)Nc1ccc2cc1OCCOCCNc1ccn3ncc-2c3n1 [compound 17] | 3.3 | 0 | 2.1 | 0.5 | 0.5 | 0.9 | 0.4 | 2.4 | -0.1 |  |  | 0,1 °C | 
11 | O=C(NCc1ccc(C(F)(F)F)cc1)Nc1ccc2cc1OCCOCCNc1ccn3ncc-2c3n1 [compound 28] | 1.8 | 0 |  |  |  |  | 2.7 | 0.9 | 0.3 | 0.3 | 0.6 | 0,9 °C | 1,5 °C
12 | Cc1ccc(F)cc1CNC(=O)Nc1ccc2cc1OCCOCCNc1ccn3ncc-2c3n1 [compound 26] | 0.9 | 0 |  |  |  |  | 2.4 | 1.1 | 0.3 | 0.4 | 0.4 | 0,2 °C | 0,7 °C
13 | O=C(NCc1ccc(Cl)cc1Cl)Nc1ccc2cc1OCCOCCNc1ccn3ncc-2c3n1 [compound 20] | 1.2 | 0.6 | 1.4 | 1.9 | 0.4 | 2.7 | 0.9 | 0.9 | 0.7 |  |  | 0,7 °C | 
14 | Cc1cc(Cl)ccc1CNC(=O)Nc1ccc2cc1OCCOCCNc1ccn3ncc-2c3n1 [compound 23] | 1.9 | 0.2 | 2 | 0.6 | 1.6 | 2 | 1.7 | 1.1 | 0.5 |  |  | 0,6 °C | 
15 | O=C(NCc1ccccc1C(F)(F)F)Nc1ccc2cc1OCCOCCNc1ccn3ncc-2c3n1 [compound 27] | 1.5 | -0.1 |  |  |  |  | 2.5 | 0.4 | 0.2 | 0.5 | 0.2 | 1,0 °C | 1,3 °C
16 | O=C(NCc1ccc(Cl)cc1)Nc1ccc2cc1OCCOCCNc1ccn3ncc-2c3n1 [compound 19] | 3.4 | 0.2 | 3.4 | 1.1 | -0.2 | 0.9 | -0.1 | 1.5 | 0.3 |  |  | 0,0 °C | 
17 | O=C(NCc1ccc(Cl)cc1F)Nc1ccc2cc1OCCOCCNc1ccn3ncc-2c3n1 [compound 21] | 3.5 | 0.4 | 2.6 | -0.1 | -0.2 | 2 | 0.8 | 2.4 | 0.2 |  |  | 0,4 °C | 
